{
  "source": "patent US20210299109A1",
  "about": "“AGENTS FOR TREATING CANCER AND METHODS FOR IDENTIFYING SAID AGENTS” (MINERVA BIOTECHNOLOGIES CORPORATION, priority 2017, published 2021)",
  "key": {"human fibroblasts": {"tested_on": "human fibroblasts", "test": "effect on fibroblast proliferation (surrogate for normal cells)", "format": "cell-based", "details": "500 nM final concentration", "from_the_text": "However, fibroblasts are more differentiated than stem cells but are able to self-replicate for defined periods of time. We tested selected compounds of the invention to determine if these compounds were just cytotoxic or if they selectively affected stem cells and, importantly, cancer cells, but not normal, healthy cells. Here, we used fibroblasts as a surrogate for normal cells. […] […] Each compound was scored for its effect on fibroblast proliferation where “+” indicates 25% inhibition of fibroblast growth, “++” 50% inhibition and “+++” 75% inhibition of growth."}, "naïve stem cells": {"tested_on": "naïve stem cells", "test": "RT-PCR of differentiation markers and super-enhancer target genes in naïve stem cells", "format": "cell-based, human", "from_the_text": "The genes whose expression increased as a result of treatment with the compounds of the invention, in a concentration dependent manner, are fibronectin and vimentin, which both increase as stem cells initiate differentiation and NF1, which is one of the first genes to increase when stem cells begin to differentiate down the neural lineage. […] Thus, compounds of the invention that induce markers of differentiation are useful for the treatment of cancers, because cancer cells, by definition, have de-differentiated, which allows them to continually self-replicate. […] Expression of metastatic marker E-cadherin was reduced and expression of differentiation markers fibronectin, vimentin and NF1 were increased. Novel compounds of the invention are highly specific. […] Although we discovered that NME1 dimers, NME7AB and NME7-X1 are all activating ligands of the MUC1* growth factor receptor and they bind to its extracellular domain, we have developed ample evidence that both NME7AB and NME7-X1 have other binding partners and can exert oncogenic effects, independent of MUC1*.\nWe first used RT-PCR to measure expression of these super-enhancer target genes and other genes of interest in naïve stem cells in the presence or absence of a few compounds of the invention. […] We also measured expression of microRNA-145, in response to treatment with compounds of the invention. […]"}, "[1]": {"tested_on": "human primed state stem cells", "test": "stem cell drug screen on primed state stem cells", "format": "cell-based", "procedure": "(§1) The stem cell screening assay, was performed in both the presence and absence of the stem cell growth factors: NME7AB for growing naïve stem cells or FGF for growing primed stem cells. If the cognate growth factor was present, then the biological or small molecule would have to compete away the growth factor to get an effect. Therefore, we expected to see more of an effect when the growth factor, FGF for primed stem cells or NME7AB or NME1 dimers for naïve stem cells, was absent. The effect of the compounds on stem cells was visually determined and compounds were ranked 0-4, with 4 being the greatest effect and 0 being no observable effect. The major effect that was observed was a change from pluripotent stem cell morphology, which is a cobblestone pattern of small round cells with a large nucleus to cytoplasm ratio, to that of differentiating stem cells, which are elongated, large and flattened cells with a smaller nucleus to cytoplasm ratio. […] […] In this particular case, the naïve state stem cells were maintained in a naïve state by culturing in a media containing NME7AB or NME1 dimers. However, other methods such as 2i and 5i (Silva et al., 2008, Nichols and Smith, 2009, Theunissen et al., 2014)] can be used to maintain stem cells in a more naïve state. In this case primed state stem cells were cultured in bFGF over a layer of MEFs, although it is known that any bFGF containing media will maintain stem cells in the primed state.\nPercent inhibition of cancer cell migration was performed in a wound healing assay. The percent area that the invading cancer cells occupied, in the presence of a drug candidate compared to the controls, was quantified by Image J cell software which enables cell counting from photographs. IC50's were calculated by performing migration experiments at several compound concentrations and then applying Hill's equation. Inhibition of cancer cell proliferation was quantified by automated cell counting in the presence or absence of a drug candidate. Here, the inhibition of cancer cell proliferation was scored 1 if proliferation was inhibited by 25%, 2 if inhibited by 50%, 3 for 75% and 4 for the highest degree of inhibition of proliferation, and 0 for the lowest. The effect of the drug candidates on stem cell pluripotency or proliferation was scored by eye, based on cell morphology and cell density, with 0 being no change in morphology or cell number and 4 being the most profound effect, with the stem cells taking on the morphology of a differentiating cell, along with much fewer cells indicative of inhibition of proliferation. As an example, FIGS. 30A-30F show photographs of naïve stem cell, primed stem cell and fibroblast controls. […]"}, "[2]": {"tested_on": "human naïve state stem cells", "test": "stem cell drug screen on naïve state stem cells", "format": "cell-based", "details": "for effect on naïve stem cells: pluripotency, growth, differentiation (first panel, FIG. 2, 7-10): 6 uM, 3 days, with or without NME7AB", "procedure": "as §1\nPercent inhibition of cancer cell migration was performed in a wound healing assay. The percent area that the invading cancer cells occupied, in the presence of a drug candidate compared to the controls, was quantified by Image J cell software which enables cell counting from photographs. IC50's were calculated by performing migration experiments at several compound concentrations and then applying Hill's equation. Inhibition of cancer cell proliferation was quantified by automated cell counting in the presence or absence of a drug candidate. Here, the inhibition of cancer cell proliferation was scored 1 if proliferation was inhibited by 25%, 2 if inhibited by 50%, 3 for 75% and 4 for the highest degree of inhibition of proliferation, and 0 for the lowest. The effect of the drug candidates on stem cell pluripotency or proliferation was scored by eye, based on cell morphology and cell density, with 0 being no change in morphology or cell number and 4 being the most profound effect, with the stem cells taking on the morphology of a differentiating cell, along with much fewer cells indicative of inhibition of proliferation. As an example, FIGS. 30A-30F show photographs of naïve stem cell, primed stem cell and fibroblast controls. FIGS. 31A-31F show the effect of compounds of the invention on naïve state stem cells, where the number of ‘+’ signs indicates the score from 0-4 of ability of compound to inhibit pluripotency, proliferation of naïve stem cells or ability to induce their differentiation. […] FIGS. 36-44 and 65-87 show photographs and IC50 graphs of the compounds of the invention, inhibiting cancer cell migration and invasion. Cancer cell migration is a hallmark of metastatic cancer.\nStem cells whether embryonic or induced pluripotent stem (iPS) cells were cultured in a minimal, serum-free media that contained human recombinant NME7AB at a concentration of 2-32 nM wherein 4-8 nM is preferred and 4 nM is more preferred. […]"}, "[3]": {"tested_on": "MUC1* positive cancer cells", "details": "in vitro; cited from earlier work"}, "cancer cells": {"tested_on": "cancer cells", "details": "cited from earlier work"}},
  "data": [
    {"compound": "Cc1sc2c(c1C)C(c1ccc(Cl)cc1)=N[C@@H](CC(=O)OC(C)(C)C)c1nnc(C)n1-2", "note": "[JQ1(+)]", "values": [
      {"measurement": "effect on fibroblasts", "setting": "human fibroblasts", "value": "same effect on fibroblasts as it does on primed state stem cells"},
      {"measurement": "up-regulation of markers of differentiation (fibronectin, vimentin, NF1) in naïve stem cells", "setting": "naïve stem cells", "value": "did not cause up-regulation of markers of differentiation"},
      {"measurement": "effect on primed stem cell growth", "setting": "[1]", "value": "not primed stem cell growth"},
      {"measurement": "effect on the size of primed stem cell colonies", "setting": "[1]; treated for 3 days, 500 nM or 1 uM", "value": "modest effect"},
      {"measurement": "induction of differentiation of primed state stem cells", "setting": "[1]; treated for 3 days, JQ1 at 500 nM or 1 uM, bFGF absent", "value": "None of these agents appeared to induce differentiation"},
      {"measurement": "effect on naïve stem cell growth", "setting": "[2]", "value": "inhibitory effect"},
      {"measurement": "induction of differentiation and growth inhibition of naïve state stem cells", "setting": "[2]; 500 nM or 1 uM, cells cultured in NME7AB or NME1 dimers", "value": "dramatically induced differentiation"}
    ]},
    {"compound": "COC(=O)c1ccc(C2c3[nH]c4ccccc4c3CCN2C(=O)c2cccc(Cl)c2)cc1", "note": "(centres unmarked) [MN0642]", "values": [
      {"measurement": "effect on naïve stem cells: pluripotency, growth, differentiation (first panel, FIG. 2, 7-10)", "setting": "[2]", "value": "induced differentiation"},
      {"measurement": "inhibition of growth of cancer cells", "setting": "[3]", "value": "inhibit the growth of cancer cells in vitro"}
    ]},
    {"compound": "CCCCNC(=O)N1CCc2c([nH]c3ccccc23)C1C(C)c1ccccc1", "note": "(centres unmarked) [MN1130]", "values": [
      {"measurement": "effect on primed stem cells (first panel, FIG. 2-6)", "setting": "[1]; 6 uM, 3 days, with or without FGF", "value": "modest effect"},
      {"measurement": "effect on naïve stem cells: pluripotency, growth, differentiation (first panel, FIG. 2, 7-10)", "setting": "[2]", "value": "induced differentiation"}
    ]},
    {"compound": "Cc1[nH]c(/C=C2\\C(=O)Nc3ccc(S(=O)(=O)N(C)c4cccc(Cl)c4)cc32)c(C)c1C(=O)N1CCN(C)CC1", "note": "[SU11274]", "values": [
      {"measurement": "up-regulation of markers of differentiation (fibronectin, vimentin, NF1) in naïve stem cells", "setting": "naïve stem cells", "value": "did not cause up-regulation of markers of differentiation"}
    ]},
    {"compound": "FLR peptide: synthetic peptide corresponding to the extracellular domain of MUC1*, FLR also known as PSMGFR (SEQ ID NO:3) (GTINVHDVETQFNQYKTEAASRYNLTISDVSVSDVPFPFSAQSGA; the extracellular domain of Native Primary Sequence of the MUC1 Growth Factor Receptor (nat-PSMGFR - an example of “PSMGFR”))", "values": [
      {"measurement": "inhibition of the transition of regular cancer cells to metastatic cancer cells", "setting": "cancer cells", "value": "inhibit the transition of regular cancer cells to metastatic cancer cells"},
      {"measurement": "effect on naïve stem cells: pluripotency, growth, differentiation (first panel, FIG. 2, 7-10)", "setting": "[2]", "value": "induced differentiation"}
    ]}
  ]
}
